{
  "source": "paper PMC7391767",
  "about": "“Molecular mechanisms underlying menthol binding and activation of TRPM8 ion channel” (Nature Communications, 2020)",
  "key": {"TRPM8 R842K": {"biological_target": "T1, TRPM8 R842K (Mus musculus, UniProt Q8R4D5, R842K)", "T1 construct": "expressed in transfected cells; host or cells: HEK293T", "T1 sequence (Q8R4D5 whole entry R842K)": "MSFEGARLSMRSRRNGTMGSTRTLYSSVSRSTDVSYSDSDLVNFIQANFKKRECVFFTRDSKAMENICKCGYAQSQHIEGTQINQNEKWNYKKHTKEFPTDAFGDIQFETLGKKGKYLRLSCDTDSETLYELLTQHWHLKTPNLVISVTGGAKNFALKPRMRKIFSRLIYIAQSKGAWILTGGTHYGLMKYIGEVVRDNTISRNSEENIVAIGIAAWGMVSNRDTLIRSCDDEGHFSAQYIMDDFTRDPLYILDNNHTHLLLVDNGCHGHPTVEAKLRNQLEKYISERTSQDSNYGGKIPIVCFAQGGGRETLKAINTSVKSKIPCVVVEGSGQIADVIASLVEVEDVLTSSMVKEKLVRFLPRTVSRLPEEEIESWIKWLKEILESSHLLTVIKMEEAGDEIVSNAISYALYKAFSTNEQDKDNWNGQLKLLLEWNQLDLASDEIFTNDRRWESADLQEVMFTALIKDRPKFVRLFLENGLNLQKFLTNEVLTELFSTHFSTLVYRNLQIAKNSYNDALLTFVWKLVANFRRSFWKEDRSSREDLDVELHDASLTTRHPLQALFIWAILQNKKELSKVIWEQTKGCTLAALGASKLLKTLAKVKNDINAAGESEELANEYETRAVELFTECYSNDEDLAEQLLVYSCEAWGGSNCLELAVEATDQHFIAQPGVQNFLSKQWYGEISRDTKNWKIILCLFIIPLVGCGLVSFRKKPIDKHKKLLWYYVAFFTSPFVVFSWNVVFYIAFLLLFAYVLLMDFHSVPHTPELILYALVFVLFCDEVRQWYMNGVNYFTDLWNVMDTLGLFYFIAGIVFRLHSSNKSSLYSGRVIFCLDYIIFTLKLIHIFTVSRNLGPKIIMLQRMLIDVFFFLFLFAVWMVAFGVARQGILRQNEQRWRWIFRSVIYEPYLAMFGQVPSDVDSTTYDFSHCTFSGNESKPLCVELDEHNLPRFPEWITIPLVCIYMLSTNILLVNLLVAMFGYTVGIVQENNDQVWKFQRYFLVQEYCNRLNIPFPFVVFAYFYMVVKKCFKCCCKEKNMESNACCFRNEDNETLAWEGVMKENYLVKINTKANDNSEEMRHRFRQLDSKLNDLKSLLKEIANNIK", "assay": "whole-cell patch-clamp and thermodynamic mutant cycle analysis", "type": "cell-based", "description": "(§1) Murine TRPM8 was used in this study. Point mutations were made by Fast Mutagenesis Kit V2 (SBS Genetech). Primers used to generate point mutations are summarized in Supplementary Table 2.\n(§2) HEK293T cells purchased from Kunming Cell Bank, Kunming Institute of Zoology, Chinese Academy of Sciences (ATCC, CRL-3216) were cultured in Dulbecco’s modified Eagle’s medium supplemented with 20 mM L-glutamine and 10% fetal bovine serum. Cells were transiently transfected with cDNA constructs by Lipofectamine 3000 (Life Technologies) following the manufacturer’s protocol. Patch-clamp recordings were performed 1–2 days after transfection.\n(§3) Patch-clamp recordings were performed with a HEKA EPC10 amplifier controlled by PatchMaster software (HEKA). Whole-cell recordings were performed at ±80 mV. Patch pipettes were prepared from borosilicate glass and fire-polished to resistance of ~4 MΩ. For whole-cell recording, serial resistance was compensated by 60%. For single-channel recordings, patch pipettes were fire-polished to a higher resistance of 6-to-10 MΩ and then recorded in the inside-out configuration. To maximize the chance of obtaining a patch with only one channel, single-channel recordings were performed about 8 h after transfection. A solution with 130 mM NaCl, 10 mM glucose, 0.2 mM EDTA, and 3 mM HEPES (pH 7.2) was used in both bath and pipette for either whole-cell or single-channel recordings. Membrane potential was clamped at +80 mV for single-channel recordings. Current was sampled at 10 kHz and filtered at 2.9 kHz. All recordings were performed at room temperature (22 °C) with the maximum variation of 1 °C.\n(§4) Ligands such as menthol and its analogs were perfused to membrane patch by a gravity-driven system (RSC-200, Bio-Logic). Bath and ligand solution were delivered through separate tubes to minimize the mixing of solutions. Patch pipette was placed in front of the perfusion tube outlet.\n(§5) Data from whole-cell recordings were analyzed in Igor Pro version 6.1 (WaveMatrix). EC50 values were derived from fitting a Hill equation to the concentration–response relationship. […] To distinguish these possibilities, dissociation constant (Kd) for ligand binding was estimated assuming the following gating scheme:1 C0↔KdC1↔LO, where L is the equilibrium constant for the final closed-to-open transition.\n(§6) To perform thermodynamic cycle analysis, Kd values of four channel-ligand combinations (WT channel, menthol: Kd _1; Mutant channel, menthol: Kd _2; WT channel, menthol analog: Kd _3; Mutant channel, menthol analog: Kd _4) were determined separately. The strength of coupling was determined by the coupling energy (kT multiplied by LnΩ, where k is the Boltzmann constant and T is temperature in Kelvin). LnΩ was calculated by Eq. (2) as[51]2 LnΩ=LnKd_1⋅Kd_4/Kd_2⋅Kd_3."}, "TRPM8 Y1005F": {"biological_target": "T2, TRPM8 Y1005F (Mus musculus, UniProt Q8R4D5, Y1005F)", "T2 construct": "expressed in transfected cells; host or cells: HEK293T", "T2 sequence (Q8R4D5 whole entry Y1005F)": "as the sequence (Q8R4D5 whole entry R842K) above, with K842R, Y1005F counted along it", "assay": "whole-cell patch-clamp and thermodynamic mutant cycle analysis", "type": "cell-based", "conditions": "patch-clamp, peer review file", "description": "as §1, §2, §3, §4, §5, §6"}, "wild-type TRPM8": {"biological_target": "T3, wild-type TRPM8 (Mus musculus, UniProt Q8R4D5)", "T3 construct": "expressed in transfected cells; host or cells: HEK293T", "assay": "open probability from noise analysis of macroscopic current and single-channel recordings", "type": "cell-based", "description": "as §3\nFrom single-channel recordings, the open probability (Po) was calculated after events detection with a hidden Markov approach in the software QuB[49] (http://www.qub.buffalo.edu/). A dead time of 0.32 ms was imposed. As a complementary approach, Po was also estimated from noise analysis[52] of whole-cell recordings. Briefly, the mean current amplitude (I), the squared deviations in current amplitude from the mean value (σ^2), and the single-channel current (i) were measured experimentally from a membrane patch of ion channels. Then the number of ion channels clamped in that patch (N) was determined as3 N=I^2/i⋅I−σ^2.\nThe maximum current when each of ion channel is at the open state with a Po of 1 is equal to i × N. Then the open probability was calculated as the ratio between the measured macroscopic current and the maximum current calculated by noise analysis. To estimate channel conductance, current amplitude was estimated from all-point histogram of single-channel recordings."}, "[1]": {"biological_target": "T4, TRPM8 point mutants at sites 840, 910, 916, 972 (Mus musculus, UniProt Q8R4D5, A910V)", "T4 construct": "expressed in transfected cells; host or cells: HEK293T", "T4 sequence (Q8R4D5 whole entry A910V)": "as the sequence (Q8R4D5 whole entry R842K) above, with K842R, A910V counted along it", "assay": "Φ analysis based on single-channel recordings", "type": "cell-based", "conditions": "TRPM8 910V, mean of single-channel recordings (1mM, 500um)", "description": "as §3\n(§7) We followed the principle of Φ-analysis described in published literatures in detail[17],[36],[48]. […] At such a high concentration, only the patches showing the activities of one channel was used for analysis. Single-channel data were processed by the QuB software[49] version 1.4 (ref. [50]). Opening and closing events were detected during idealization with the half amplitude method. Using the simple close ↔ open model (Fig. 6a), the forward and backward rates were determined with a deadtime of 0.3-to-0.4 ms. The equilibrium constant was calculated as the ratio of forward and backward rates. Opening rates and equilibrium constants for each mutant at the same residue site were plotted in log scale (Brønsted plot) before fitting with a linear function to determine the Φ value."}, "[2]": {"biological_target": "T5, TRPM8 point mutants at sites 840, 910, 916, 972 (Mus musculus, UniProt Q8R4D5, P916F)", "T5 construct": "expressed in transfected cells; host or cells: HEK293T", "T5 sequence (Q8R4D5 whole entry P916F)": "as the sequence (Q8R4D5 whole entry R842K) above, with K842R, P916F counted along it", "assay": "Φ analysis based on single-channel recordings", "type": "cell-based", "conditions": "TRPM8 916F, mean of single-channel recordings", "description": "as §3, §7"}, "[3]": {"biological_target": "T6, TRPM8 point mutants at sites 840, 910, 916, 972 (Mus musculus, UniProt Q8R4D5, T840D)", "T6 construct": "expressed in transfected cells; host or cells: HEK293T", "T6 sequence (Q8R4D5 whole entry T840D)": "as the sequence (Q8R4D5 whole entry R842K) above, with T840D, K842R counted along it", "assay": "Φ analysis based on single-channel recordings", "type": "cell-based", "conditions": "TRPM8 840D, mean of single-channel recordings (500um, 1mM)", "description": "as §3, §7"}, "[4]": {"biological_target": "T7, TRPM8 point mutants at sites 840, 910, 916, 972 (Mus musculus, UniProt Q8R4D5, V972I)", "T7 construct": "expressed in transfected cells; host or cells: HEK293T", "T7 sequence (Q8R4D5 whole entry V972I)": "as the sequence (Q8R4D5 whole entry R842K) above, with K842R, V972I counted along it", "assay": "Φ analysis based on single-channel recordings", "type": "cell-based", "conditions": "TRPM8 972I, mean of single-channel recordings", "description": "as §3, §7"}, "[5]": {"test_system": "TRPM8 point mutants at sites 840, 910, 916, 972", "assay": "Φ analysis based on single-channel recordings", "type": "cell-based, mouse", "conditions": "for Φ value: 5 mM menthol, single-channel, +80 mV", "description": "as §3, §7"}, "[6]": {"conditions": "TRPM8 840A, mean of single-channel recordings (500um)"}, "[7]": {"conditions": "TRPM8 910T, mean of single-channel recordings (1mM, 5mM)"}, "[8]": {"conditions": "TRPM8 972L, mean of single-channel recordings"}},
  "note": "Values joined by “and” are separate entries in the source; they are usually repeats but may differ in a detail not shown here. Identical values can stand only once. Like-named read-outs stand apart in the source and are kept apart here.",
  "data": [
    {"smiles": "CC(C)[C@@H]1CC[C@@H](C)C[C@H]1O", "note": "[menthol, (−)-menthol]", "values": [
      {"measurement": "L (equilibrium constant between closed and open states upon ligand binding), Ave", "setting": "TRPM8 R842K", "value": 18.3882},
      {"measurement": "L, single recording", "setting": "TRPM8 R842K", "value": "24.6476 and 13.2288 and 17.2882"},
      {"measurement": "concentration–response curve value, ave", "setting": "TRPM8 R842K; 20 microM", "value": 0.01439},
      {"measurement": "concentration–response curve value, ave", "setting": "TRPM8 R842K; 100 microM", "value": 0.2373},
      {"measurement": "concentration–response curve value, single recording", "setting": "TRPM8 R842K; 100 microM", "value": "0.2375 and 0.1865 and 0.1541 and 0.2977 and 0.2927 and 0.2 and 0.2925"},
      {"measurement": "concentration–response curve value, ave", "setting": "TRPM8 R842K; 500 microM", "value": 0.6774},
      {"measurement": "concentration–response curve value, single recording", "setting": "TRPM8 R842K; 500 microM", "value": "0.6802 and 0.7221 and 0.591 and 0.6718 and 0.7751 and 0.601 and 0.7009"},
      {"measurement": "concentration–response curve value, ave", "setting": "TRPM8 R842K; 1000 microM", "value": 0.8246},
      {"measurement": "concentration–response curve value, single recording", "setting": "TRPM8 R842K; 1000 microM", "value": "0.892 and 0.8781 and 0.8012 and 0.8485 and 0.8182 and 0.7917 and 0.7425"},
      {"measurement": "concentration–response curve value, ave", "setting": "TRPM8 R842K; 2000 microM", "value": 0.8146},
      {"measurement": "concentration–response curve value, single recording", "setting": "TRPM8 R842K; 2000 microM", "value": "0.9219 and 0.8808 and 0.8026 and 0.7789 and 0.777 and 0.8121 and 0.7292"},
      {"measurement": "Kd", "setting": "TRPM8 R842K; calculated from concentration–response curves, read-out: Kd, Ave", "value": 8.71, "unit": "mM"},
      {"measurement": "Kd", "setting": "TRPM8 R842K; read-out: Kd, single recording", "value": "8.48 mM and 6.83 mM and 10.8 mM"},
      {"measurement": "EC50", "setting": "TRPM8 Y1005F", "value": "0.498 ± 0.0087", "unit": "mM"},
      {"measurement": "agonist nature", "setting": "wild-type TRPM8; noise analysis of macroscopic current, confirmed in single-channel recordings", "value": "partial agonist"},
      {"measurement": "maximum open probability (Po max)", "setting": "wild-type TRPM8; wild-type TRPM8, near saturating concentration (menthol 500 µM)", "value": "0.81 ± 0.03"},
      {"measurement": "logKeqave", "setting": "[1]", "value": 0.7613},
      {"measurement": "ratesave (mean log forward rates)", "setting": "[1]", "value": 3.348},
      {"measurement": "logKeqave", "setting": "[2]", "value": 0.4532},
      {"measurement": "logratesave", "setting": "[2]", "value": 3.166},
      {"measurement": "logKeqave", "setting": "[3]", "value": 0.4314},
      {"measurement": "ratesave (mean log forward rates)", "setting": "[3]", "value": 3.1375},
      {"measurement": "logKeqave", "setting": "[4]", "value": -0.5254},
      {"measurement": "logKeqave", "setting": "[5]; [6]", "value": -0.9923},
      {"measurement": "ratesave (mean log forward rates)", "setting": "[5]; [6]", "value": 2.126},
      {"measurement": "logKeqave", "setting": "[5]; [7]", "value": 0.1885},
      {"measurement": "ratesave (mean log forward rates)", "setting": "[5]; [7]", "value": 3.0067},
      {"measurement": "logKeqave", "setting": "[5]; [8]", "value": 0.4054},
      {"measurement": "logratesave", "setting": "[5]; [8]", "value": 3.126},
      {"measurement": "phi from single-channel recording", "setting": "[5]; site 840", "value": 0.7339},
      {"measurement": "Φ value", "setting": "[5]; site 840", "value": 0.73},
      {"measurement": "phi from single-channel recording", "setting": "[5]; site 910", "value": 0.6331},
      {"measurement": "Φ value", "setting": "[5]; site 910", "value": 0.63},
      {"measurement": "phi from single-channel recording", "setting": "[5]; site 916", "value": 0.4253},
      {"measurement": "Φ value", "setting": "[5]; site 916", "value": 0.42},
      {"measurement": "phi from single-channel recording", "setting": "[5]; site 972", "value": 0.711},
      {"measurement": "Φ value", "setting": "[5]; site 972", "value": 0.71}
    ]}
  ]
}
